Results from patent US20250263799A1, “METHODS OF TREATING CANCER USING REPLICATION STRESS MODULATORS” (The Institute of Cancer Research: Royal Cancer Hospital, priority 2022, published 2025).

Experiments:
[1] = test system: SUM149 cells with dox-inducible expression of HORMAD1; assay: CHK1 inhibitor sensitivity, colony forming density, Cell Titer Glow, surviving fraction; assay type: cell-based, human; conditions: FIGS. 18A, B and D
[2] = test system: HORMAD1 negative RPE-1 cells engineered to have doxycycline inducible expression of HORMAD1; assay: Novobiocin sensitivity, 10 days, cell viability by cell titre glow; assay type: cell-based, human
Description: HORMAD1 negative RPE-1 cells engineered to have doxycycline inducible expression of HORMAD1 were then assessed for their sensitivity to the POLQ inhibitor Novobiocin. Cells were treated with the indicated doses of Novobiocin for 10 days and cell viability assessed by cell titre glow.

[3] = test system: Breast cancer cell lines characterized as HORMAD1 negative and positive; conditions: data from depmap.org, FIG. 18C; cited from earlier work
[4] = test system: SUM159 cells with dox-inducible expression of HORMAD1; assay: LY2606368 sensitivity in SUM159 cells with dox-inducible HORMAD1 (FIG. 18D); assay type: cell-based, human; conditions: +DOX vs -DOX
[5] = test system: RPE1 cells engineered with dox inducible expression of HORMAD1; assay: Colony formation (surviving fraction) with ART558 in RPE1 cells with dox inducible expression of HORMAD1; assay type: cell-based, human
Description: (§1) RPE1 (FIGS. 16-17, A) or SUM159 (FIGS. 16-17, B) cells engineered with dox inducible expression of HORMAD1 were seeded at colony forming density in the presence or absence of dox and treated with the indicated doses of ART558. Colonies were counted and surviving fractions for each condition were calculated.

[6] = test system: SUM159 cells engineered with dox inducible expression of HORMAD1; assay: Colony formation (surviving fraction) with ART558 in SUM159 cells with dox inducible expression of HORMAD1; assay type: cell-based, human
Description: as §1

Structure (SMILES): C[C@H](CN(C)C)Oc1nc(Nc2cc3cccc(Cl)c3cn2)cnc1C#N [SAR020106]
- sensitivity to CHK1 inhibitor, HORMAD1 expressing vs uninduced controls [1]: significantly increased sensitivity

Structure (SMILES): CO[C@@H]1[C@@H](OC(N)=O)[C@@H](O)[C@H](Oc2ccc3c(O)c(NC(=O)c4ccc(O)c(CC=C(C)C)c4)c(=O)oc3c2C)OC1(C)C [Novobiocin]
- sensitivity to inhibitor, HORMAD1 expressing vs uninduced controls ([2]; +DOX vs uninduced, difference dose-dependent): significantly increased sensitivity
- colony survival ([2]; Novobiocin at concentrations above 50 μM, 10 days): significant and dose-dependent reduction in colony survival

Structure (SMILES): Cn1cc(-c2[nH]c3cc(NC(=O)[C@H](N)C4CCCCC4)cc4c3c2C=NNC4=O)cn1 [PF47736]
- sensitivity to CHK1 inhibitor, HORMAD1 expressing vs uninduced controls [1]: significantly increased sensitivity

Structure (SMILES): COc1cccc(OCCCN)c1-c1cc(Nc2cnc(C#N)cn2)n[nH]1 [LY2606368]
- mean area under the curve (AUC), HORMAD1 positive vs HORMAD1 negative group [3]: lower mean AUC
- sensitivity to CHK1 inhibitor upon induction of HORMAD1 expression [4]: increased sensitivity

Structure (SMILES): Cc1cccc(N(C)C(=O)[C@@H]2[C@H](O)CCN2c2nc(C)cc(C(F)(F)F)c2C#N)c1 [ART558]
- sensitivity to inhibitor, +DOX vs -DOX ([5]; RPE1, dox-induced expression of HORMAD1, FIG. 16A): increases sensitivity
- cell viability (surviving fraction of colonies) ([5]; RPE1 cells expressing HORMAD1 (+DOX), 5, 10, and 20 μM ART558): significant reduction in cell viability
- cell viability (surviving fraction of colonies) ([5]; RPE1 cells in the absence of the inducer (-DOX), below 20 μM ART558): no reduction in cell viability
- sensitivity to inhibitor, HORMAD1 expressing vs uninduced controls ([6]; SUM159, +DOX vs uninduced): significantly increased sensitivity
- cell viability (surviving fraction of colonies) ([6]; SUM159 cells expressing HORMAD1 (+DOX), 10 and 20 μM ART558): significant reduction in cell viability
